The experiment concerns the target T1, farnesyl protein transferase (FPT) (Rattus norvegicus, UniProt Q02293+Q04631).
T1 construct: were partially purified from rat brain by ammonium sulfate fractionation; from tissue; host or cells: rat brain
The experiment is described as follows: Inhibition of farnesyl protein transferase (FPT), in vitro enzyme assay, Ras-CVLS farnesylation. As to conditions: Table 22. It counts as biochemical, rat (partially purified rat brain).

The structures appear in SMILES notation.

Description: Two forms of val^12 -Ha-Ras protein were prepared as substrates for these enzymes, differing in their carboxy terminal sequence. One form terminated in cysteine-valine-leucine-serine (Ras-CVLS) the other in cystein-valine-leucine-leucine (Ras-CVLL). Ras-CVLS is a substrate for the famesyl protein transferase while Ras-CVLL is a substrate for geranylgeranyl protein transferase I. The cDNAs encoding these proteins were constructed so that the proteins contain an amino-terminal extension of 6 histidine residues. Both proteins were expressed in Escherichia coli and purified using metal chelate affinity chromatography. The radiolabelled isoprenyl pyrophosphate substrates, [^3 H]farnesyl pyrophosphate and [^3 H]geranylgeranyl pyrophosphate, were purchased from DuPont/New England Nuclear.
The reaction was allowed to proceed for 30 minutes at room temperature and then stopped with 0.5 ml of 4% sodium dodecyl sulfate (SDS) followed by 0.5 ml of cold 30% trichloracetic acid (TCA). Samples were allowed to sit on ice for 45 minutes and precipitated Ras protein was then collected on GF/C filter paper mats using a Brandel cell harvester. Filter mats were washed once with 6% TCA, 2% SDS and radioactivity was measured in a Wallac 1204 Betaplate BS liquid scintillation counter. Percent inhibition was calculated relative to the DMSO vehicle control.

What is called IC50 is the concentration that gives 50% inhibition. Read a low IC50 as higher potency. With `C[C@H](N)C(=O)N1CCC(CC(=O)N2CCN(C3c4ccc(Cl)cc4CCc4cccnc43)CC2)CC1` (stereo partly drawn) [Example 433], the half-maximal inhibitory concentration (IC50) was determined as 2500 nM.

Consider `O=C(Cc1ccnc(-n2ccnc2)c1)N1CCC(C2c3ccc(Cl)cc3CCc3cc(Br)cnc32)CC1` (stereo not drawn) [Example 410-T], for which the IC50 worked out at 1800 nM.

The compound `CS(=O)(=O)c1cc(CC(=O)N2CCC(C3c4ccc(Cl)cc4CCc4cc(Br)cnc43)CC2)ccn1` (stereo not drawn) [Example 410-W] returned an IC50 of 1160 nM.

The compound `CN1CCN(c2cc(CC(=O)N3CCC(C4c5ccc(Cl)cc5CCc5cc(Br)cnc54)CC3)ccn2)CC1` (stereo not drawn) [Example 410-U] came in with an IC50 of 5000 nM.

The compound `CSCC[C@H](N)C(=O)N1CCC(CC(=O)N2CCN(C3c4ccc(Cl)cc4CCc4cccnc43)CC2)CC1` (stereo partly drawn) [Example 433-B] had an IC50 of 1890 nM. Compared with the last compound, the IC50 is about 2.6-fold lower.

Consider `CSc1cc(CC(=O)N2CCC(C3c4ccc(Cl)cc4CCc4cc(Br)cnc43)CC2)ccn1` (stereo not drawn) [Example 410-V], for which the midpoint of inhibition, the IC50, lay at 1170 nM.

For the origin of these results see US5807852A, “Tricyclic amide and urea compounds useful for inhibition of G-protein function and for treatment of proliferative diseases” (Schering Corporation, priority 1995, dated 1998).
